Laboratory results taken from EPA's ToxValDB 9.5 (doi:10.2903/j.efsa.2009.184r).

Legend:
[1] = test system: Anas platyrhynchos; conditions: oral, mortality
[2] = test system: Oncorhynchus mykiss; conditions: chronic/long-term; duration: 28 days; growth
[3] = test system: Colinus virginianus; conditions: acute, oral, mortality
[4] = test system: Tagia sp.; conditions: acute; duration: 14 days; mortality
[5] = test system: Apis mellifera; conditions: acute; duration: 48 hours; oral; unspecified; mortality
[6] = test system: Daphnia magna; conditions: chronic/long-term; duration: 21 days
[7] = test system: Mus musculus; conditions: chronic; duration: 18 months; histopathology: nonneoplastic
[8] = test system: Lepomis macrochirus; conditions: acute; duration: 96 hours; mortality
[9] = test system: Rattus norvegicus
[10] = test system: Bibionidae; conditions: chronic/long-term; duration: 28 days
[11] = test system: Aphidius rhopalosiphi; assay: LR50; higher = less toxic; conditions: not reported; mortality

SMILES: O=C(NC(=O)c1c(F)cccc1F)Nc1cc(Cl)c(F)c(Cl)c1F [Teflubenzuron]
- LD50 ([1]; acute, unspecified): > 2000 mg/kg-day
- LD50 ([1]; short-term, feed): > 1210 mg/kg-day
- NOEC [2]: 0.0186 mg/L
- LD50 ([3]; diet): > 1010 mg/kg-day
- LD50 [3]: > 2250 mg/kg-day
- LC50 [4]: > 1000 mg/kg
- LD50 [5]: > 72 µg/piece
- NOEC [6]: 6.2e-05 mg/L
- LOAEL [7]: 2.1 mg/kg-day
- LC50 [8]: > 6.5 ng/mL
- LD50 ([9]; acute, oral, mortality): > 5000 mg/kg-day
- NOAEL ([9]; chronic): 40 mg/kg-day
- NOAEL ([9]; subchronic, duration: 90 days, oral, clinical chemistry): 8 mg/kg-day
- NOEC [10]: 0.05 mg/kg
- LR50 [11]: > 180 g/ha
